Experimental data reported in US20060276525A1, “Processes of preparing highly pure telmisartan form A, suitable for pharmaceutical compositions” (priority 2005, published 2006).
Read-outs that look alike come from different tables or passages of the source.

Columns and labels:
Type in all cases: physicochemical
[1] = Bulk density (tapped density tester VanKel 50-2300)
Protocol: Bulk Density: Bulk density was measured using tapped density tester dual-platform model VanKel 50-2300 (Varian Inc.). System specifications. Speed: nominal rate of 300 taps per minute, Accuracy: Actual setting±1 tap, Drop height: 14±2 mm. Platform rotation: 5-15 rotations/minute.

[2] = Flowability / electrostatic charging of the ground material; settings: ground by conventional mill
[3] = Average particle size measurement (Malvern Mastersizer 2000, particle size distribution); settings: for Particle size distribution D(v,0.1) / Particle size distribution D(v,0.2) / Particle size distribution D(v,0.8) / Particle size distribution D(v,0.95) / Particle size distribution D(v,0.98) / Particle size distribution D(v,1.0) / Particle size distribution D(v,0.5) / Particle size distribution D(v,0.9): carrier liquid water; for Particle size distribution D(v,0.5): size for 50% of the particles; for Particle size distribution D(v,0.9): size for 90% of the particles; for D(V, 0.9): in µm (unit assumed)
Protocol: Average Particle Size Measurement: Particle size was measured by Malvern model Mastersizer 2000, equipped with Malvern Hydro G circulation cell. Carrier: liquid:water. System description: Measuring range: from 0.02-2000 μm. Accuracy: 1% on the Dv50 Light sources: Red light-helium neon laser. Blue light-solid state light source.

[4] = listed as Telmisartan form A, obtained by crystallization from DMSO
[5] = listed as Telmisartan form A, obtained by crystallization from water
[6] = Sonicated material with no milling

| SMILES | Particle size distribution D(v,0.1) [3] [μ] | Particle size distribution D(v,0.2) [3] [μ] | Particle size distribution D(v,0.8) [3] [μ] | Particle size distribution D(v,0.95) [3] [μ] | Particle size distribution D(v,0.98) [3] [μ] | Particle size distribution D(v,1.0) [3] [μ] | Particle size distribution D(v,0.5) [3] [μ] | Particle size distribution D(v,0.9) [3] [μ] | other results |
| --- | --- | --- | --- | --- | --- | --- | --- | --- | --- |
| CCCc1nc2c(C)cc(-c3nc4ccccc4n3C)cc2n1Cc1ccc(-c2ccccc2C(=O)O)cc1 [Example 1, Telmisartan] | 1.60 | 2.25 | 11.46 | 22.21 | 29.03 | 52.87 | 4.98 | 16.78 | Bulk density [1]: about 0.3 g/ml; Bulk density [1, 4]: about 0.3 g/ml; Flowability of ground material [2]: free flowing crystalline powder that does not tend to gain electrostatic charge upon grinding; Particle size distribution D(v,0.5) [3, 4]: about 5 μ; Particle size distribution D(v,0.9) [3, 4]: about 17 μ |
| CCCc1nc2c(C)cc(-c3nc4ccccc4n3C)cc2n1Cc1ccc(-c2ccccc2C(=O)O)cc1 [Example 2, Telmisartan] | 0.35 | 0.85 | 11.90 | 23.03 | 30.08 | 52.871 | 4.33 | 17.48 | Bulk density [1, 5]: about 0.22 g/ml; Particle size distribution D(v,0.5) [3, 5]: about 4.3 μ; Particle size distribution D(v,0.9) [3, 5]: about 17.5 μ |
| CCCc1nc2c(C)cc(-c3nc4ccccc4n3C)cc2n1Cc1ccc(-c2ccccc2C(=O)O)cc1 [Example 4, Telmisartan] | 1.08 | 1.45 | 6.04 | 12.07 | 16.13 | 33.57 | 2.83 | 8.97 | Particle size distribution D(v,0.5) ([3]; listed as Telmisartan form A, obtained by crystallization from DMF): less than 3 μ |
| CCCc1nc2c(C)cc(-c3nc4ccccc4n3C)cc2n1Cc1ccc(-c2ccccc2C(=O)O)cc1 [Example 7, Telmisartan] | – | – | – | – | – | – | – | – | D(V, 0.1) ([3]; Ground material): 0.7 µm; D(V, 0.5) ([3]; Ground material): 3.3 µm; D(V, 0.9) ([3]; Ground material): 19.1; D(V, 0.1) [3, 6]: 0.8 µm; D(V, 0.5) [3, 6]: 8.1 µm; D(V, 0.9) [3, 6]: 24.7; D(V, 0.1) ([3]; Un-milled material): 51.4 µm; D(V, 0.5) ([3]; Un-milled material): 245 µm; D(V, 0.9) ([3]; Un-milled material): 578.2 |
